The record followed here is publication PMC9176662, “Design, synthesis, molecular modeling and biological evaluation of novel Benzoxazole-Benzamide conjugates via a 2-Thioacetamido linker as potential anti-proliferative agents, VEGFR-2 inhibitors and apoptotic inducers” (Journal of Enzyme Inhibition and Medicinal Chemistry, 2022).

The test system of assay [1] is Bcl-xL. Briefly: Western blot of Bcl-xL expression in MCF-7. Format: cell-based, human. As to conditions: MCF-7, Western blot, normalised to β-actin. The text has this:
(§1) It is well known that the anti-apoptotic proteins Bcl-2 and Bcl-xL are mainly overexpressed in various types of cancer, causing survival of cancer cells and/or drug resistance. Therefore, inhibition of these proteins expression leads to cancer cell death and has been used as a strategy for anticancer drug development. In this study, the impact of compounds 1 and 11 on Bcl-2 and Bcl-xL expression in HCT-116 and MCF-7 cancer cell lines was examined using Western blot analysis and all the data were normalised to β-actin (Figure 9).
(§2) 2.5. Impact of compounds 1 and 11 on the level of anti-apoptotic markers (Bcl-2, and Bcl-xL).
(§3) Gel electrophoresis and immuno-blot analysis of proteins (Western Blot) method was used to examine the effect of compounds 1 and 11 on the level of anti-apoptotic markers (Bcl-2, and Bcl-xL). […]
(§4) The cells were then immediately frozen at −20 °C for 1 h for further lysis and collected by cell scraper and sonicated 2×10s. Total protein concentrations were determined colorimetrically using Bradford method before proceeding to the western blotting. […] Briefly, the membranes were incubated for 1 min with a mixture of equal volumes from ECL solution A and ECL solution B. The chemiluminescent signals were captured using a CCD camera-based imager (Chemi Doc imager, Biorad, USA), and the band intensities were then measured with β-actin as an internal reference protein. […]
Background: In western blotting, separated proteins are transferred to a membrane and probed.

Assay [2] deals with Bcl-xL. Briefly: Western blot of Bcl-xL expression in HCT-116. It counts as cell-based, human. As to conditions: HCT-116, Western blot, normalised to β-actin.
Description: as §1, §2, §3, §4

For assay [3], the system named is WI-38 cells. Briefly: Cytotoxicity against normal fibroblasts, SRB assay, WI-38. As to conditions: normal human fibroblasts, 72 h, mean ± SD of three separate experiments. It counts as cell-based. The text has this:
(§5) Several of these derivatives were reported as acting as competitive inhibitors of different tyrosine kinases, with potent cytotoxic activity against various cell lines[58]^,[59]. […] Thus, in this study a novel series of benzoxazole-benzamide conjugates was initially evaluated for their potential anti-cancer activity against colon cancer cell line (HCT-116), breast cancer cell line (MCF-7) and normal human fibroblasts (WI-38), using the Sulforhodamine B colorimetric (SRB) assay.
(§6) 2.1. Anti-proliferative activity against HCT-116 and MCF-7 human cancer cells lines.
(§7) The sulforhodamine B (SRB) assays were performed according to Skehan et al..
(§8) Briefly, exponentially growing cells were trypsinized, counted and seeded at the appropriate densities (5000 cells/100 μL/ well) into 96-well microtiter plates. Cells were incubated in a humidified atmosphere at 37 °C for 24 h. Then, the cells were exposed to the tested compounds at the desired concentrations (0.01, 0.1, 1, 10, and 100 μM) or to 1% dimethyl sulfoxide (DMSO) for 72 h. At the end of the treatment period, the media were removed, and the cells were fixed with 10% trichloroacetic acid at 4 °C for 1 h. Following, the cells were washed with tap water four times and incubated with SRB 0.4% for 30 min. Excess dye was removed by washing repeatedly with 1% (vol/vol) acetic acid. The protein-bound dye was dissolved in 10 mM Tris base solution for (optical density) OD determination at 510 nm using a Spectra Max plus Microplate Reader (Molecular Devices, CA). Cell viability was expressed relative to the untreated control cells. […]
A general note: Sulforhodamine B stains cellular protein and so reports cell mass.

In assay [4] the test system is HCT-116 cells. Nature of the assay: Anti-proliferative activity, SRB assay, HCT-116. Format: cell-based, human. The conditions noted are these: for IC50: SRB assay, 72 h exposure, mean ± SD of three separate experiments; for HCT-116 SI (selectivity index): ratio of IC50 for normal cells (WI-38) to IC50 for HCT-116.
Description: as §5, §6, §7, §8

In assay [5] the test system is MCF-7 cells. Nature of the assay: Annexin V-FITC/PI apoptosis assay, MCF-7. It counts as cell-based, human. As to conditions: for %Apoptosis %Early: control 0.47; for %Apoptosis %Late: control 1.34; for %Necrosis: control 1.6; for %Apoptosis %Total: control 3.41. On the procedure:
2.4. Annexin V-FITC/PI apoptosis assay.
For this study, annexin V-FITC / PI apoptosis detection kit was used; HCT -116 and MCF-7 cells were stained with annexin V fluorescein isothiocyanate (FITC) and propidium iodide (PI) counter-stained.1 x 10^5 HCT-116 cells were 48 h incubated with compound 1 or 11, trypsinized, washed with phosphate-buffered saline (PBS), stained in the dark at 37 °C for 15 min utes.
Finally, the cells analyzed with a cytometer of FACS Caliber flow.

Broadly, the IC50 is the concentration that inhibits the measured activity by half. Read a low IC50 as inhibition by little substance. With `O=C(CSc1nc2ccccc2o1)Nc1ccc(C(=O)NC2CCCCC2)cc1` [Compound 1], in assay [1], the Bcl-xL expression result was “inhibited”. Further, the Bcl-xL expression entry in assay [2] is listed as “inhibited”. The same compound showed an IC50 in assay [3] of 41.9 ± 0.27 µM. This compound also gave an IC50 in assay [4] (Homo sapiens, HCT-116, 72 h) of 7.2 ± 0.01 µM. Besides, in assay [4], half-maximal inhibition (IC50) required 7.8 ± 0.015 µM and the “HCT-116 SI (selectivity index)” value is given as 5.3. In assay [5], the “total increase in apoptosis compared to the control” value is “approximately 5.8 fold”, the “%Apoptosis %Early” value was 6.02%, the “%Apoptosis %Late” value is 12.17% and the “%Necrosis” value was found to be 1.59%. In assay [5], the “%Apoptosis %Total” value is given as 19.78%.

`O=C(CSc1nc2cc(Cl)ccc2o1)Nc1ccc(C(=O)Nc2ccc(Cl)cc2)cc1` [Compound 11]: in assay [1], the Bcl-xL expression result was “inhibited”. In addition, the Bcl-xL expression entry in assay [2] is “inhibited”. The IC50 in assay [3] stood at 103.5 ± 0.7 µM. In assay [4] (Homo sapiens, HCT-116, 72 h), the IC50 was found to be 12.2 ± 0.007 µM. In assay [4], the “HCT-116 SI (selectivity index)” value is 8.5. In assay [5], the “total increase in apoptosis compared to the control” value is given as about 5.0 fold, the “%Apoptosis %Early” value is given as 4.93%, the “%Apoptosis %Late” value came to 10.26% and the “%Necrosis” value is 1.74%. The “%Apoptosis %Total” value in assay [5] was 16.93%.
